According to article PMC9529985, “Eco-friendly methods of synthesis and preliminary biological evaluation of sulfonamide derivatives of cyclic arylguanidines” (Ultrasonics Sonochemistry, 2022):
Read-outs that look alike come from different tables or passages of the source. Blank lines part the entries; values can stand above or below the compound they belong to.

Experiments:
[1] = Metabolic stability in mouse liver microsomes (MLMs); type: in vitro ADME; conditions: for Metabolic pathway: metabolites identified by UPLC-MS; for remaining at 2 h, 50 µM: mouse, liver microsomes, MLMs 1 mg/ml
Procedure: The ADME-Tox parameters of 10f were analyzed according to described previously protocols, [45] and included: Parallel Artificial Membrane Permeability Assay (PAMPA) passive permeability testing, the influence on CYP3A4 activity, metabolic stability in mouse liver microsomes, and hepatotoxicity assessment with HepG2 cells.
The metabolic stability of 10f was estimated with mouse liver microsomes (MLMs) (Sigma-Aldrich, St. Louis, MO, USA). The tested compound (50 µM) was incubated in the presence of MLMs (1 mg/ml) for 120 min in a buffer (10 mM Tris–HCl buffer at 37 °C). Then, to terminate the reaction, cold methanol was added to the reaction mixture. The precipitated MLMs were centrifuged and the supernatant was analyzed with a LC/MS Waters ACQUITY™ TQD system with the TQ Detector (Waters, Milford, USA).

[2] = system: human astrocytoma cell line 1321 N1; test: MTS cytotoxicity test in 1321 N1 astrocytoma cells; type: cell-based; conditions: 1321 N1 cells; for concentration at which activity (statistically significant suppression of cell viability) was seen / IC50: MTS; for viability of the cells compared to vehicle control: 24 h exposure; for IC50: 50 % decrease relative to the maximum inhibition observed, read-out: IC50 (cell viability)
Procedure: (§1) The cytotoxic properties of newly synthetized compounds were assessed in human astrocytoma cell line 1321 N1 (RRID:CVCL_0110, European Collection of Authenticated Cell Cultures, ECACC:86030402) and human breast adenocarcinoma cell line MDA-MB-231 (RRID:CVCL_0062; ATCC:HTB-26). ECACC and ATCC perform thorough cell line authentication utilizing Short Tandem Repeat (STR) profiling. Upon receipt of the cell lines, the cells were expanded for a few passages to enable the generation of new frozen stocks. The cells were resuscitated as needed and used for<6 months after resuscitation (no>15 passages). Cell line 1321 N1 was cultured in high-glucose (4500 mg/L) Dulbecco's modified Eagle's medium (DMEM) supplemented with 10 % fetal bovine serum (FBS). The MDA-MB-231 cells were maintained in RPMI-1640 with 10 % FBS. All cell culture media were additionally fortified with penicillin (100 U/mL), streptomycin (100 µg/mL), and amphotericin B (250 ng/mL) to prevent bacterial and yeast contamination. The cell culture media and supplements used in this study were purchased from Sigma-Aldrich. The cells were maintained at 37 °C in a humidified 5 % incubator in an atmosphere of 5 % CO2 and 95 % air.
The cells were subcultured upon reaching the confluency of about 80 %. Cell detachment was facilitated with TrypLE solution (Thermo Fisher Scientific). The cells were counted in a Z2 particle counter (Beckman Coulter), then plated at 5,000 cells/well in 96-well plates (Eppendorf) in 100 µL of full growth medium and cultured overnight to enable cell attachment. Next day, the cells were subjected to either vehicle (0.1 % DMSO) or our compounds of interest for 24, 48, or 72 h. The assessment of cell viability was performed by adding 20 µL/well of the mixture of 3-(4,5-dimethylthiazol-2-yl)-5-(3-carboxymethoxyphenyl)-2-(4-sulfophenyl)–2H-tetrazolium, inner salt (MTS) and phenazine ethosulfate from Promega (#G3580). After 3 h of incubation, the absorbance was recorded at 490 nm using Synergy H1 plate reader (Biotek) The experiments were carried out in quadruplicates and were repeated three times. The obtained values were normalized to vehicle control and plotted.
The IC50 values were calculated with GraphPad Prism 8.0.1 software (nonlinear regression, log(inhibitor) vs normalized response) as the dose that causes a 50 % decrease in cell viability relative to the maximum inhibition observed. Statistical significance determination was evaluated with GraphPad Prism 5.0.1 software using one-way ANOVA, followed by Bonferroni’s comparison test (p < 0.05).

[3] = system: HepG2 human hepatoma cell line; test: Hepatotoxicity, MTS assay in HepG2 cells; type: cell-based; conditions: 72 h (Fig. 6 legend)
Procedure: Hepatotoxicity was evaluated by means of an MTS assay described above (section 23) with a HepG2 human hepatoma cell line (ATCC:HB-8065), [48]. […] Compound 10f was tested in a single experiment in quadruplicate.

[4] = Metabolic stability in mouse liver microsomes (MLMs); type: in vitro ADME; conditions: TRIS-HCl pH 7.4 buffer solution without microsomes, 120 min
[5] = PAMPA passive permeability; type: in vitro ADME; conditions: PBS pH 7.4, 5 h, room temperature
Procedure: The ADME-Tox parameters of 10f were analyzed according to described previously protocols, [45] and included: Parallel Artificial Membrane Permeability Assay (PAMPA) passive permeability testing, the influence on CYP3A4 activity, metabolic stability in mouse liver microsomes, and hepatotoxicity assessment with HepG2 cells. The pre-coated PAMPA Plate System Gentest was sourced from Corning (Tewksbury, MA, USA). […] The plate was incubated at room temperature for 5 h without stirring. Then, 50 μL was aspirated from both Acceptor (A) and Donor (D) wells and then diluted with a 50 µL solution of an internal standard (IS). The concentrations of the tested compounds in the A and D wells were estimated with an LC/MS Waters ACQUITY™ TQD system with the TQ Detector (Waters, Milford, USA). The Pe values were estimated according to the proper formulas provided by Corning and described previously in the literature.

[6] = system: human breast adenocarcinoma cell line MDA-MB-231; test: MTS cytotoxicity test in MDA-MB-231 cells; type: cell-based; conditions: 24 h, read-out: IC50 (cell viability)
Procedure: as §1, with “All cell culture media were additionally fortified with penicillin (100 U/mL), streptomycin (100 µg/mL), and amphotericin B (250 ng/mL) to prevent bacterial and yeast contamination. The cell culture media and supplements used in this study were purchased from Sigma-Aldrich. The cells were maintained at 37 °C in a humidified 5 % incubator in an atmosphere of 5 % CO2 and 95 % air.” left out
The cells were subcultured upon reaching the confluency of about 80 %. […] The cells were counted in a Z2 particle counter (Beckman Coulter), then plated at 5,000 cells/well in 96-well plates (Eppendorf) in 100 µL of full growth medium and cultured overnight to enable cell attachment. […] After 3 h of incubation, the absorbance was recorded at 490 nm using Synergy H1 plate reader (Biotek) The experiments were carried out in quadruplicates and were repeated three times. […]

melting point: > 300 °C
SMILES: O=S(=O)(Nc1nc2ccccc2[nH]1)c1ccccc1 [10a, N-(1H-benzimidazol-2-yl)benzenesulfonamide]

melting point: 182 to 186 °C
SMILES: O=S(=O)(NC1=NCc2ccccc2N1)c1ccccc1 [10e, N-(1,4-dihydroquinazolin-2-yl)benzenesulfonamide]

metabolic stability (in words) ([1]; MLMs, 120 min): unstable
metabolized ([1]; MLMs, 120 min incubation, UPLC): 97%
remaining at 2 h, 50 µM ([1]; 120 min): 3%
dehydrogenation in control sample [4]: 5%
Papp at 5 h, 200 µM ([5]; read-out: permeability coefficient Pe): 5 ± 1.5 ×10⁻⁶ cm/s
SMILES: O=S(=O)(NC1=NCc2ccccc2N1)c1cccc2ccccc12 [10f, N-(1,4-dihydroquinazolin-2-yl)naphthalene-1-sulfonamide]
Metabolic pathway ([1]; MLMs): double hydroxylation and double bound reduction
concentration at which activity (statistically significant suppression of cell viability) was seen ([2]; 24 h): 1 µM
viability of the cells compared to vehicle control [2]: 48.0%
IC50 ([2]; Homo sapiens, 24 h): 8220 nM
viability at 50 µM ([2]; Homo sapiens, 72 h, 50 µM, read-out: cells still viable): 32%
IC50 ([2]; Homo sapiens, 72 h): 130 nM
hepatotoxicity (in words) ([3]; HepG2, 1–10 µM): did not exhibit hepatotoxic properties
effect on cell viability (in words) ([3]; HepG2, 50 or 100 µM): statistically significant decrease in cells viability

melting point: > 300 °C
SMILES: O=S(=O)(NC1=NCc2ccccc2N1)c1ccc2ccccc2c1 [10g, N-(1,4-dihydroquinazolin-2-yl)naphthalene-2-sulfonamide]

melting point: 207 to 209 °C
SMILES: O=S(=O)(NC1=NCc2cc(Cl)ccc2N1)c1ccc2ccccc2c1 [10h, N-(6-chloro-1,4-dihydroquinazolin-2-yl)naphthalene-2-sulfonamide]

melting point: 188 to 194 °C
SMILES: Nc1nc2ccccc2n1S(=O)(=O)c1ccc2ccccc2c1 [11c, 1-(naphthalene-2-sulfonyl)-1H-benzimidazol-2-amine]

melting point: 225 to 229 °C
SMILES: Nc1nc2cc(Cl)ccc2n1S(=O)(=O)c1cccc2ccccc12 [11d, 5-chloro-1-(naphthalene-1-sulfonyl)-1H-benzimidazol-2-amine]
concentration at which activity (statistically significant suppression of cell viability) was seen ([2]; 24 h): 1 µM

The remaining lines, values behind:

SMILES: O=S(=O)(Nc1ncc2ccccc2n1)c1cccc2ccccc12 [Dehydrogenated-10f, N-(quinazolin-2-yl)naphthalene-1-sulfonamide]
Metabolic pathway ([1]; MLMs): double hydroxylation
remaining at 2 h, 50 µM ([1]; 120 min): 17.5%

SMILES: Cn1c(=O)c2c(ncn2C)n(C)c1=O [caffeine, reference compound]
permeability coefficient Pe ([5]; 200 µM): 12.2 ± 0.9 × 10^-6 cm/s

SMILES: COc1cccc2c1C(=O)c1c(O)c3c(c(O)c1C2=O)C[C@@](O)(C(=O)CO)C[C@@H]3O[C@H]1C[C@H](N)[C@H](O)[C@H](C)O1 [doxorubicin, reference compound]
IC50 [6]: 1400 nM
viability of the cells compared to vehicle control [2]: 47.5%
IC50 ([2]; Homo sapiens, 24 h): 1100 nM
